{"source": "patent US20230381069A1", "about": "“TOPICAL COMPOSITIONS AND METHODS OF USING THEREOF” (OHIO STATE INNOVATION FOUNDATION, priority 2016, published 2023)", "test": "Photolysis of thin films in petroleum jelly on quartz plates under a UV photolysis lamp", "assay_type": "physicochemical", "procedure": "A UV photolysis lamp having a light flux of 320 mW equipped with a cutoff filter at 270-280 nm was used to evaluate the performance and stability of the sunscreen compositions prepared herein. With 3 min of exposure to the UV lamp (same position as sample, after the filter), a clear damage was observed on human skin. Typically, under hot sun, this sunburn process takes 30 min to an hour. Accordingly, the photolysis lamp used for analysis is considerably more intense than natural sunlight.\nFIGS. 4A and 4B compare the stability of avobenzone dispersed in petroleum jelly with avobenzone encapsulated in encapsulated in zeolite nanoparticles (10% zeolite, 1% AB) dispersed in petroleum jelly.\nFIG. 7 is a plot showing the long-term stability of avobenzone/nanozeolite formulations. The absorption spectra of a thin film of avobenzone encapsulated in zeolite nanoparticles (10% zeolite, 1% AB) dispersed in petroleum jelly on quartz plates was obtained following 0, 3, 5, and 12 hours of irradiation using a UV photolysis lamp.", "data": [{"smiles": "COc1ccc(C(=O)CC(=O)c2ccc(C(C)(C)C)cc2)cc1", "note": "[avobenzone]", "values": [{"measurement": "AB decomposition in the presence of 1% OMC (octinoxate)", "setting": "petroleum jelly, photolysis for 4 hours, FIGS. 8A/8B", "result": "AB decomposition was observed after the first hour of photolysis"}, {"measurement": "degradation of avobenzone via UV spectroscopy (long-term stability)", "setting": "thin film in petroleum jelly, 0, 3, 5 and 12 hours of irradiation, FIG. 7", "result": "complete degradation of the avobenzone was observed within four hours"}]}]}
